Results on 1 molecule are retold here after patent US20130022620A1, “ASSAYS AND METHODS PERTAINING TO PRE-AMYLOID INTERMEDIATES” (priority 2011, published 2013).

One assay has as its system rat INS-1 β-cells. In words: AlamarBlue cell viability assay of β-cells. The assay is classed as cell-based. The protocol: Transformed rat insulinoma-1 (INS-1) β-cells (which express RAGE) are a pancreatic beta cell line commonly used for studies of h-IAPP induced toxicity. INS-1 cells were grown in RPMI 1640 supplemented with 10% fetal bovine serum (FBS), 11 mM glucose, 10 mM Hepes, 2 mM L-glutamine, 1 mM sodium pyruvate, 50 μM β-mercaptoethanol, 100 U/ml penicillin, and […] streptomycin. Cells were maintained at 37° C./5% CO2.
Cyto-toxicity was measured by AlamarBlue assay. INS-1 β-cells were seeded at a density of 30,000 cells per well in 96-well plates and cultured for 24 hours prior to stimulation with IAPP. Human and rat IAPP were dissolved and incubated in 16 mM tris HCl (pH 7.4, 25° C.) prior to cell stimulation. AlamarBlue was diluted ten-fold in culture media and cells were incubated for 5 hours at 37° C. Fluorescence (excitation 530; emission 590 nm) was measured on a Beckman Coulter DTX880 fluorescent plate reader. Values calculated were relative to those of control cells treated with buffer only. All values represent means±SEM (n=3).
Changes in cell morphology were examined by light microscopy to provide a second method of evaluating cell viability. Transformed rat INS-1 beta cells were photographed immediately prior to assessment of toxicity by Alamar blue cell viability assays. Images were taken using an Olympus BX-61 light microscope.
(Resazurin is reduced to fluorescent resorufin, in cell work by metabolically active cells.)

In assay [1] the test system is MCP-1 and IL-1β mRNA expression. Put plainly: qRT-PCR of MCP-1 and IL-1β mRNA in β-cells. The settings on record: β-cells stimulated with peptide. The assay is classed as cell-based, rat. The protocol: (§1) Assays for qRT-PCR were carried out in 6-well plates. Total cellular RNA was isolated from h-IAPP stimulated β-cells using Qiagen RNA isolation kit, and the quality of RNA samples was determined by measurement of 260:280 ratio. Only samples with a 260:280 ratio of 2.0 or higher were used for reverse transcription. RNA samples were also treated by RNAse-free DNAse to avoid genomic DNA contamination. One microgram of RNA from each sample was reverse-transcribed to cDNA using MCP-1 and IL-1β primers. Non-template negative controls were also performed to monitor non-specific reactions. RNA isolated from rat IAPP and non-h-IAPP treated beta cells were used as negative controls. Equal amounts of RNA were used in each qRT-PCR reaction, and 18S was used as the internal control for amplification at the same time. qRT-PCR reactions were carried out using an Applied Biosystems 7500 RealTime PCR machine. The relative mRNA contents were normalized using 18S and quantification was carried out using qRT-PCR Quantifier Software.
On the technique in general: Real-time PCR tracks product formation cycle by cycle.

Assay [2] has the same test system. Put plainly: qRT-PCR of MCP-1 and IL-1β mRNA in smooth muscle cells. Type of assay: cell-based, mouse. The settings on record: peptide stimulation. The protocol: Mouse vascular SMCs were cultured from the aortas of 10-week-old male mice using a modification of the procedure of Tarvo and Barret. See Tarvo et al. Blood Vessels. 1980; 17:110-116. SMCs were cultured following an explant protocol in accordance with institutional guidelines. Cultures were composed of 95% SM-α-actin positivity based on immunostaining.
as §1

For the molecule `CC[C@H](C)[C@H](NC(=O)[C@H](C)NC(=O)CNC(=O)[C@H](Cc1ccccc1)NC(=O)[C@H](CC(N)=O)NC(=O)[C@H](CC(N)=O)NC(=O)[C@H](CO)NC(=O)[C@H](CO)NC(=O)[C@H](Cc1c[nH]cn1)NC(=O)[C@@H](NC(=O)[C@H](CC(C)C)NC(=O)[C@H](Cc1ccccc1)NC(=O)[C@H](CC(N)=O)NC(=O)[C@H](C)NC(=O)[C@H](CC(C)C)NC(=O)[C@H](CCCNC(=N)N)NC(=O)[C@H](CCC(N)=O)NC(=O)[C@@H](NC(=O)[C@H](C)NC(=O)[C@@H]1CSSC[C@H](NC(=O)[C@@H](N)CCCCN)C(=O)N[C@@H](CC(N)=O)C(=O)N[C@@H]([C@@H](C)O)C(=O)N[C@@H](C)C(=O)N[C@@H]([C@@H](C)O)C(=O)N1)[C@@H](C)O)C(C)C)C(=O)N[C@@H](CC(C)C)C(=O)N[C@@H](CO)C(=O)N[C@@H](CO)C(=O)N[C@H](C(=O)N[C@@H](CC(N)=O)C(=O)N[C@H](C(=O)NCC(=O)N[C@@H](CO)C(=O)N[C@@H](CC(N)=O)C(=O)N[C@H](C(=O)N[C@@H](Cc1ccc(O)cc1)C(N)=O)[C@@H](C)O)C(C)C)[C@@H](C)O` [h-IAPP, human islet amyloid polypeptide], in the assay with rat INS-1 β-cells (amyloid fibrils added to cultured cells), the “cell toxicity of amyloid fibrils” value was “No toxicity was observed”. In addition, the “cell toxicity (AlamarBlue cell viability, light microscopy)” value in the assay with rat INS-1 β-cells (peptide incubated in buffer at room temperature for various times, then applied to INS-1 β-cells) is “maximum toxicity was observed at intermediate time points”. For the same molecule, in the assay on rat INS-1 β-cells (resuspended pellet added to beta cells), the “toxicity of resuspended pellet after ultracentrifugation” value is listed as “the resuspended pellet is not”. Further, in the assay on rat INS-1 β-cells (supernatant added to beta cells), the “toxicity of soluble phase after ultracentrifugation” value was “toxic to beta cells”. Further, the “MCP-1 and IL-1β mRNA expression” value in assay [1] is “increase in MCP-1 and IL-1β mRNA expression”. For the same molecule, the “MCP-1 and IL-1β mRNA expression in smooth muscle cells” value in assay [2] is “increase in MCP-1 and IL-1β mRNA expression”.
